We go through two compounds from patent publication US11274332B2, “Methods of administering 3,4-diaminopyridine” (SERB SA, priority 2011, dated 2022).

For one data set, the system named is rat hepatocytes. The data set is described as follows: In vitro metabolism of 14C-amifampridine in rat hepatocytes (Example 1). The format is in vitro ADME. As to the method: The objective of this hepatocyte study was to determine the extent of metabolism, complete metabolic profile and metabolite characterization of amifampridine phosphate in several species with ^14C-amifampridine phosphate for a cross species comparison. The following procedures were used to study the metabolism in rat (Example 1), dog (Example 2), and human hepatocytes (Example 3).
The cryopreserved hepatocytes were removed from storage, quickly thawed in a 37° C. water bath for 1 to 2 min, and transferred to a 50 ml tube containing pre-warmed InVitroGRO HT medium (Celsis Inc., Baltimore). The cell suspension was mixed by gentle inversion and the cells were pelleted by centrifugation at 50 to 75×g for 5 min. The supernatant medium was removed and the cells were resuspended in Williams' Medium E. Hepatocyte viability was assessed by using trypan blue exclusion. Hepatocyte density was determined by counting cells with a hemocytometer and the density was adjusted with Williams' Medium E to achieve a final density of 1,000,000 cells/mL. […] The supernatant medium was removed and the cells were resuspended in cold Williams' Medium E. The cell density was then determined using a hemocytometer and the density was adjusted with Williams' Medium E to achieve a final density of 1,000,000 cells/mL. […]

The next data set concerns the target T1, hKv1.7 (Homo sapiens, UniProt Q96RP8).
T1 construct: expressed in transfected cells; host or cells: CHO cells (transient transfection)
The data set is described as follows: Whole cell patch clamp inhibition of hKv1.7 current in transiently transfected CHO cells (Example 5). The format is cell-based. As to conditions: hKv1.7, up to 3000 μM. The method, then: Chemicals used in solution preparation were purchased from Sigma-Aldrich (St. Louis, Mo.), unless otherwise noted, and were of ACS reagent grade purity or higher. Stock solutions of each test article (100.104 mM and 1.00 mM 3,4-DAP phosphate and 100.023 mM and 336.335 mM N-(4-aminopyridin-3-yl) acetamide HCl) were prepared in sterile water, stored refrigerated and used within one day. […] All test article solutions contained 3% sterile water. The test articles were prepared in sufficient volume to run the assay (typically 50 mL).
CHO cells, transiently transfected with hKv1.7, were cryopreserved in 90% FBS and 10% DMSO. Frozen vials of cells were thawed rapidly in a 37° C. water bath. Cells were transferred to a 15 mL conical tube, 10 mL of growth media (Ham's/F12-PS/10% FBS) was added, the suspension was gently mixed and the tube was centrifuged at approximately 250×g for 5 min. The medium was removed, the cell pellet was resuspended in 20 mL of medium, and cells were triturated to disperse cell clumps. For electrophysiology use, 2 mL of the cell suspension was plated in each 35 mm cell culture dish. Recording began 2-3 hours after plating once the cells settled out of the media and adhered to the bottom of the culture dish. […]
Cells were transferred to the recording chamber and superfused with vehicle control solution. […] Onset and steady state inhibition of hKv1.7 current due to the test article was measured using a pulse pattern with fixed amplitudes (depolarization: +10 mV amplitude, 300 ms duration) repeated at 10-second intervals from a holding potential of −80 mV. Current amplitude was measured at the end of the step to +10 mV. Current was monitored until a new steady state was achieved. […] The IC50 for sustained current was calculated for 3,4-DAP phosphate salt.
For 3,4-DAP phosphate salt, the concentration-response relationship was evaluated at seven concentrations (1, 10, 30, 100, 300, 1000 and 3000 μM) and for N-(4-aminopyridin-3-yl) acetamide HCl salt, the concentration-response relationship was evaluated at three concentrations (100, 1000 and 3000 μM).
For orientation: Patch clamp records ionic current or voltage across a cell membrane.

T1 sequence (Q96RP8 whole entry): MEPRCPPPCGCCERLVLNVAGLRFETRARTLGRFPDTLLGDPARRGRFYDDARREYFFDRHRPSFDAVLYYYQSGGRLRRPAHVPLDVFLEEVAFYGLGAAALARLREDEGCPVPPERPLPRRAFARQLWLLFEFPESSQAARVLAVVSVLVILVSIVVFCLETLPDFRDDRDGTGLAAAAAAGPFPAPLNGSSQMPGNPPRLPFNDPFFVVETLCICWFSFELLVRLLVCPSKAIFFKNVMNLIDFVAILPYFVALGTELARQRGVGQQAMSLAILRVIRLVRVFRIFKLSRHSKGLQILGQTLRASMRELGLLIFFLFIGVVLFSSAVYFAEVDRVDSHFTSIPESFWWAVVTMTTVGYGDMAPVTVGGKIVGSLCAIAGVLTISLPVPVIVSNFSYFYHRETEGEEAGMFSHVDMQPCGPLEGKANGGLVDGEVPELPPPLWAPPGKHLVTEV

As for `Nc1ccncc1N` [3,4-DAP, 3,4-diaminopyridine], the “formation of single major acetylated amifampridine metabolite” value in the data set on rat hepatocytes was “extensive”.
As to `CC(=O)Nc1cnccc1N` [3-N-acetyl amifampridine, N-(4-aminopyridin-3-yl)acetamide], the results for the “activity on K+ channel” value at hKv1.7 and at hKv1.7 (listed as N-acetyl metabolite) were “inactive” and “not active”, respectively.
